The record followed here is ChEMBL document CHEMBL4725251, “Structure-activity relationships of tubulysin analogues” (Bioorg Med Chem Lett, 2020).

Some results are limits rather than exact numbers.

Assay [1] has as its target Tubulin (Homo sapiens) (UniProt P68371+Q9H4B7+P0DPH7+P68366+Q13509+Q71U36+P04350+Q3ZCM7+P07437+P68363+Q9BQE3+Q6PEY2+Q13885+Q9BVA1+Q9BUF5). Nature of the assay: Binding affinity to tubulin (unknown origin) by fluorescence polarization displacement assay. The format is protein-complex assay.
In assay [2] the test system is DEL. Nature of the assay: Antiproliferative against human DEL cells incubated for 96 hrs by cellTiter-Glo assay. The format is functional, cell-based. On the technique in general: In ATP-based viability assays light output follows the ATP content of the culture.
Assay [3] can be described thus: Antiproliferative against human DEL/BVR cells incubated for 96 hrs by cellTiter-Glo assay. The format is functional, cell-based.
The test system of assay [4] is L-540. The experiment in a line: Antiproliferative against human L540cy cells incubated for 96 hrs by cellTiter-Glo assay. The class given is functional, cell-based. The conditions noted are these: L-540, 96 h.
Assay [5] deals with L-428. Nature of the assay: Antiproliferative against human L428 cells incubated for 96 hrs by cellTiter-Glo assay. The class given is functional, cell-based. The conditions noted are these: L-428, 96 h.

With `CCO[C@H](C[C@H](C(C)C)N(C)C(=O)[C@@H](NC(=O)[C@H]1CCCCN1C)[C@@H](C)OC(C)(C)C)c1nc(C(=O)N[C@@H](Cc2ccccc2)C[C@H](C)C(=O)O)cs1`, in assay [1], the relative binding affinity (RBA) was found to be 0.83. The values for the EC50 in assay [2], in assay [3] and in assay [4] were 0.1 nM, 0.4 nM and 0.1 nM, respectively.
The molecule `CCO[C@H](C[C@H](C(C)C)N(C)C(=O)[C@@H](NC(=O)[C@H]1[C@@H]2CC[C@@H](C2)N1C)[C@@H](C)CC)c1nc(C(=O)N[C@@H](Cc2ccccc2)C[C@H](C)C(=O)O)cs1` had a relative binding affinity (RBA) in assay [1] of 0.08. Further, the figures for the EC50 in assay [2], in assay [3] and in assay [4] were 2 nM, 15 nM and 8 nM, respectively.
For `CCO[C@H](C[C@H](C(C)C)N(C)C(=O)[C@@H](NC(=O)[C@H]1CCCCN1C)C(CC)CC)c1nc(C(=O)N[C@@H](Cc2ccccc2)C[C@H](C)C(=O)O)cs1`, the relative binding affinity (RBA) in assay [1] is 0.2. For the same molecule, the EC50 (in general, the concentration that produces a half-maximal response) in assay [2] came to 0.4 nM; in assay [3], 4 nM; in assay [4] it was 1 nM.
In turn, `CCO[C@H](C[C@H](C(C)C)N(C)C(=O)[C@@H](NC(=O)[C@H]1CCCCN1C)C1CCC1)c1nc(C(=O)N[C@@H](Cc2ccccc2)C[C@H](C)C(=O)O)cs1` had a relative binding affinity (RBA) in assay [1] of 0.03. Besides, the EC50 in assay [2] worked out at 13 nM; in assay [3] it was 89 nM; in assay [4], 24 nM.
Take `CC[C@H](C)[C@H](NC(=O)[C@H]1CCCCN1C)C(=O)N(C)[C@H](C[C@@H](OC)c1nc(C(=O)N[C@@H](Cc2ccccc2)C[C@H](C)C(=O)O)cs1)C(C)C`: in assay [1], the relative binding affinity (RBA) amounted to 0.42. The 50% effective concentration (EC50) in assay [4] was determined as 0.12 nM; in assay [5] it was 0.48 nM.
Turning to `CCO[C@H](C[C@H](C(C)C)N(C)C(=O)[C@@H](NC(=O)[C@H]1CCCCN1C)[C@@H](C)CC)c1nc(C(=O)N[C@@H](Cc2ccccc2)C[C@H](C)C(=O)O)cs1`, in assay [1], the relative binding affinity (RBA) is 0.27. Further, the EC50 in assay [2] is 0.04 nM; in assay [3], 1 nM; in assay [4], 0.4 nM; in assay [5], 0.13 nM.
In assay [1], `C#CCO[C@H](C[C@H](C(C)C)N(C)C(=O)[C@@H](NC(=O)[C@H]1CCCCN1C)[C@@H](C)CC)c1nc(C(=O)N[C@@H](Cc2ccccc2)C[C@H](C)C(=O)O)cs1` returned a relative binding affinity (RBA) of 0.59. In addition, the concentration for a half-maximal effect (EC50) stood at 0.17 nM in assay [4] and 0.41 nM in assay [5].
Take `CCO[C@H](C[C@H](C(C)C)N(C)C(=O)[C@@H](NC(=O)[C@H]1CCCCN1C)[C@H](C)OC)c1nc(C(=O)N[C@@H](Cc2ccccc2)C[C@H](C)C(=O)O)cs1`: the relative binding affinity (RBA) in assay [1] turned out to be 0.001. Further, the EC50 in assay [2] stood at 1 nM; in assay [3], 17 nM; in assay [4], 5 nM.
`CCO[C@H](C[C@H](C(C)C)N(C)C(=O)[C@@H](NC(=O)[C@@]1(C)CCCN1C)[C@@H](C)CC)c1nc(C(=O)N[C@@H](Cc2ccccc2)C[C@H](C)C(=O)O)cs1` came in with a relative binding affinity (RBA) in assay [1] of 0.38. Also, the EC50 in assay [2] is 0.3 nM; in assay [3], 2 nM; in assay [4] it was 1 nM.
For `CC[C@H](C)[C@H](NC(=O)[C@H]1CCCCN1C)C(=O)N(C)[C@H](C[C@@H](OC(C)=O)c1nc(C(=O)N[C@@H](Cc2ccccc2)C[C@H](C)C(=O)O)cs1)C(C)C`, the EC50 in assay [4] was determined as 0.08 nM; in assay [5], 0.04 nM.
In assay [1], `C=CCO[C@H](C[C@H](C(C)C)N(C)C(=O)[C@@H](NC(=O)[C@H]1CCCCN1C)[C@@H](C)CC)c1nc(C(=O)N[C@@H](Cc2ccccc2)C[C@H](C)C(=O)O)cs1` returned a relative binding affinity (RBA) of 0.88. The concentration for a half-maximal effect (EC50) in assay [4] was determined as 0.12 nM; in assay [5] it was 0.15 nM.
For `CC[C@H](C)[C@H](NC(=O)[C@H]1CCCCN1C)C(=O)N(C)[C@H](C[C@@H](OCc1ccccc1)c1nc(C(=O)N[C@@H](Cc2ccccc2)C[C@H](C)C(=O)O)cs1)C(C)C`, the relative binding affinity (RBA) in assay [1] was determined as 0.07. Besides, the EC50 worked out at 0.4 nM in assay [4] and 0.57 nM in assay [5].
With `CCO[C@H](C[C@H](C(C)C)N(C)C(=O)[C@@H](NC(=O)[C@H]1CCCCN1C)[C@@H](C)OC)c1nc(C(=O)N[C@@H](Cc2ccccc2)C[C@H](C)C(=O)O)cs1`, the relative binding affinity (RBA) in assay [1] was determined as 0.03. For the same molecule, the EC50 in assay [2] is 1 nM; in assay [3] it was 66 nM; in assay [4], 6 nM.
`CCO[C@H](C[C@H](C(C)C)N(C)C(=O)[C@@H](NC(=O)C1CCC(F)(F)CN1C)[C@@H](C)CC)c1nc(C(=O)N[C@@H](Cc2ccccc2)C[C@H](C)C(=O)O)cs1` (mixture of isomers) had a relative binding affinity (RBA) in assay [1] of 0.07. For the same molecule, the EC50 in assay [2] is 9 nM; in assay [3] it was 66 nM; in assay [4], 15 nM.
Take `CCO[C@H](C[C@H](C(C)C)N(C)C(=O)[C@@H](NC(=O)[C@H]1CCCCN1C)[C@H](C)CC)c1nc(C(=O)N[C@@H](Cc2ccccc2)C[C@H](C)C(=O)O)cs1`: in assay [1], the relative binding affinity (RBA) came out at 0.007. The EC50 in assay [2] is 3 nM; in assay [3], 61 nM; in assay [4], 13 nM.
Regarding `CCC(=O)O[C@H](C[C@H](C(C)C)N(C)C(=O)[C@@H](NC(=O)[C@H]1CCCCN1C)[C@@H](C)CC)c1nc(C(=O)N[C@@H](Cc2ccccc2)C[C@H](C)C(=O)O)cs1`, in assay [1], the relative binding affinity (RBA) came out at 0.97. Besides, the EC50 came out at 0.06 nM in assay [4] and 0.04 nM in assay [5].
In the case of `CCCC(=O)O[C@H](C[C@H](C(C)C)N(C)C(=O)[C@@H](NC(=O)[C@H]1CCCCN1C)[C@@H](C)CC)c1nc(C(=O)N[C@@H](Cc2ccccc2)C[C@H](C)C(=O)O)cs1`, the relative binding affinity (RBA) in assay [1] worked out at 0.52. For the same molecule, the EC50 came out at 0.04 nM in assay [4] and 0.05 nM in assay [5].
In assay [1], `CCCO[C@H](C[C@H](C(C)C)N(C)C(=O)[C@@H](NC(=O)[C@H]1CCCCN1C)[C@@H](C)CC)c1nc(C(=O)N[C@@H](Cc2ccccc2)C[C@H](C)C(=O)O)cs1` yielded a relative binding affinity (RBA) of 0.68. For the same molecule, the EC50 in assay [4] was found to be 0.13 nM; in assay [5], 0.39 nM.
Consider `CCO[C@H](C[C@H](C(C)C)N(C)C(=O)CNC(=O)[C@H]1CCCCN1C)c1nc(C(=O)N[C@@H](Cc2ccccc2)C[C@H](C)C(=O)O)cs1`, for which the EC50 stood at 3300 nM in assay [2], 9600 nM in assay [3] and 4600 nM in assay [4].
In the case of `CCO[C@H](C[C@H](C(C)C)N(C)C(=O)[C@@H](NC(=O)C12CC(CCN1C)C2)[C@@H](C)CC)c1nc(C(=O)N[C@@H](Cc2ccccc2)C[C@H](C)C(=O)O)cs1`, the relative binding affinity (RBA) in assay [1] was 0.23. The EC50 in assay [2] came out at 0.2 nM; in assay [3], 2 nM; in assay [4], 1 nM.
`CCO[C@H](C[C@H](C(C)C)N(C)C(=O)[C@@H](NC(=O)[C@H]1CCCCN1C)[C@H](C)OC(C)(C)C)c1nc(C(=O)N[C@@H](Cc2ccccc2)C[C@H](C)C(=O)O)cs1` displayed a relative binding affinity (RBA) in assay [1] of 0.06. In addition, the EC50 in assay [2] worked out at 17 nM; in assay [3], 123 nM; in assay [4] it was 81 nM.
On to `CCO[C@H](C[C@H](C(C)C)N(C)C(=O)[C@@H](NC(=O)[C@H]1CCCCN1C)C1CCCCC1)c1nc(C(=O)N[C@@H](Cc2ccccc2)C[C@H](C)C(=O)O)cs1`, for which the relative binding affinity (RBA) in assay [1] is 0.4. In addition, the results for the EC50 in assay [2], in assay [3] and in assay [4] were 0.2 nM, 6 nM and 1 nM, respectively.
In assay [1], `CC[C@H](C)[C@H](NC(=O)[C@H]1CCCCN1C)C(=O)N(C)[C@H](C[C@@H](OCC(C)=O)c1nc(C(=O)N[C@@H](Cc2ccccc2)C[C@H](C)C(=O)O)cs1)C(C)C` registered a relative binding affinity (RBA) of 0.27. For the same molecule, the EC50 was 0.6 nM in assay [4] and 1 nM in assay [5].
With `CC[C@H](C)[C@H](NC(=O)[C@H]1CCCCN1C)C(=O)N(C)[C@H](C[C@@H](OC(=O)C(C)C)c1nc(C(=O)N[C@@H](Cc2ccccc2)C[C@H](C)C(=O)O)cs1)C(C)C`, the relative binding affinity (RBA) in assay [1] amounted to 0.36. The concentration giving a half-maximal response (EC50) in assay [4] stood at 0.1 nM; in assay [5] it was 0.12 nM.
As for `CCO[C@H](C[C@H](C(C)C)N(C)C(=O)[C@@H](NC(=O)C1CN(C)CCN1C)[C@@H](C)CC)c1nc(C(=O)N[C@@H](Cc2ccccc2)C[C@H](C)C(=O)O)cs1` (mixture of isomers), in assay [4], the EC50 was > 1000 nM.
Molecule `C=C(C)CO[C@H](C[C@H](C(C)C)N(C)C(=O)[C@@H](NC(=O)[C@H]1CCCCN1C)[C@@H](C)CC)c1nc(C(=O)N[C@@H](Cc2ccccc2)C[C@H](C)C(=O)O)cs1` showed a relative binding affinity (RBA) in assay [1] of 0.43. Further, the concentration for a half-maximal effect (EC50) turned out to be 0.06 nM in assay [4] and 0.12 nM in assay [5].
For `CCO[C@H](C[C@H](C(C)C)N(C)C(=O)[C@@H](NC(=O)[C@H]1CCCCN1C)C1CCCC1)c1nc(C(=O)N[C@@H](Cc2ccccc2)C[C@H](C)C(=O)O)cs1`, in assay [1], the relative binding affinity (RBA) was determined as 0.45. For the same molecule, the EC50 in assay [2] stood at 0.1 nM; in assay [3], 1 nM; in assay [4], 0.2 nM.
In the case of `CC[C@H](C)[C@H](NC(=O)[C@H]1CCCCN1C)C(=O)N(C)[C@H](C[C@@H](OC(=O)CC(C)C)c1nc(C(=O)N[C@@H](Cc2ccccc2)C[C@H](C)C(=O)O)cs1)C(C)C`, the relative binding affinity (RBA) in assay [1] turned out to be 0.26. Also, the EC50 in assay [4] is 0.06 nM; in assay [5], 0.11 nM.
On to `CCO[C@H](C[C@H](C(C)C)N(C)C(=O)[C@H](C)NC(=O)[C@H]1CCCCN1C)c1nc(C(=O)N[C@@H](Cc2ccccc2)C[C@H](C)C(=O)O)cs1`, for which the relative binding affinity (RBA) in assay [1] was 0.03. Moreover, the EC50 in assay [2] turned out to be 21 nM; in assay [3], 420 nM; in assay [4], 110 nM.
